In paper PMC4629031, “Evaluation of the Inhibitory Effects of Bavachinin and Bavachin on Human Monoamine Oxidases A and B” (Evidence-based Complementary and Alternative Medicine : eCAM, 2015) one finds Ki data, which are given here for 1 compound.

The target in assay [1] is T1, human monoamine oxidase A (hMAO-A) (Homo sapiens, UniProt P21397).
T1 construct: gene MAOA
T1 sequence (P21397 1-527): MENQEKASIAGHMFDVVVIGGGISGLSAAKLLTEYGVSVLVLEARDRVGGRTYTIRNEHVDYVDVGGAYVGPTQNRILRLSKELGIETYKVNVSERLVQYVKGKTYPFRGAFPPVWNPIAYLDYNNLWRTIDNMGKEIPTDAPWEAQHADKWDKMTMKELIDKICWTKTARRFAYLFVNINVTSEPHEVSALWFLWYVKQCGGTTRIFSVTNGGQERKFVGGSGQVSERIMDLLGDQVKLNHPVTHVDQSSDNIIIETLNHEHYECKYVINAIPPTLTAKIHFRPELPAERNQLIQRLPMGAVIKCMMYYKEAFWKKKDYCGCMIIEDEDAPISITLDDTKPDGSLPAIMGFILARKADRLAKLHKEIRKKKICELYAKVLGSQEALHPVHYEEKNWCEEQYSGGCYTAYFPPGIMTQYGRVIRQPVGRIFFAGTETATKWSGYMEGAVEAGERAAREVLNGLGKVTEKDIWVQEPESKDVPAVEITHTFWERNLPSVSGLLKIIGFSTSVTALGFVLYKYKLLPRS
As to the kind of experiment: MAO-Glo luminescent assay with recombinant enzyme; Michaelis-Menten/Lineweaver-Burk kinetics (IC50 […]). In kind it is biochemical.

The target in assay [2] is T2, human monoamine oxidase B (hMAO-B) (Homo sapiens, UniProt P27338).
T2 construct: gene MAOB
T2 sequence (P27338 2-520): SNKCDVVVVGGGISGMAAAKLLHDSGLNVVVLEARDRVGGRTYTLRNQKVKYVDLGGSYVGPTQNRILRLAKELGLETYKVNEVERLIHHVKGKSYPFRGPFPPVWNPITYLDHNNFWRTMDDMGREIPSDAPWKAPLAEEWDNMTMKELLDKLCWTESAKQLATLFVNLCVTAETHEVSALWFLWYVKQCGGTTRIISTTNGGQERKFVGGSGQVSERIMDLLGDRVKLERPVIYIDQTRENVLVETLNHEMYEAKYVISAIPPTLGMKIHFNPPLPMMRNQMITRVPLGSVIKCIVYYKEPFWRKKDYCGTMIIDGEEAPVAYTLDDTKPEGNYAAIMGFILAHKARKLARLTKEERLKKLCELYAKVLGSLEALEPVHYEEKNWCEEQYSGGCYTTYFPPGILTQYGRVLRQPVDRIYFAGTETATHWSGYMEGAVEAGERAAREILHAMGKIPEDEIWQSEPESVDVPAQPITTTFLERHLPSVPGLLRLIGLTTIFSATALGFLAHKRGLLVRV
The assay is described as above. In kind it is biochemical.

Broadly, the Ki is the equilibrium dissociation constant of an inhibitor or competing ligand from its target.

`COc1cc2c(cc1CC=C(C)C)C(=O)C[C@@H](c1ccc(O)cc1)O2` [BNN, 4′-hydroxy-7-methoxy-6-(3-methyl-2-butenyl) flavanone]: the Ki came to 95.3 µM in assay [1] and 9.22 µM in assay [2].
